The results in this text go back to patent publication US20250051344A1, “BIFUNCTIONAL SELECTIVE DEGRADERS OF SMARCA2 AND THERAPEUTIC USES THEREOF” (Nurix Therapeutics, Inc., priority 2023, published 2025).

The target in one test is T1, SMARCA2 (Homo sapiens, UniProt P51531).
T1 construct: endogenous in cells
The test is described as follows: SMARCA2 Cellular Degradation Assay (Western blot analysis on Jess platform). The class given is cell-based. The following applies: for DC50 / Dmax: cellular degradation; for Fold Selectivity SMARCA4/2: ratio DC50 SMARCA4 / DC50 SMARCA2. In short, it runs like this: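 Cells recovered from tumors are lysed, cleared at 20,817×g, and protein is quantified by BCA. Equal protein (5 μg) is then probed on Jess for SMARCA2 and actin, and normalized SMARCA2 signal is reported against vehicle.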
A general note: In western blotting, separated proteins are transferred to a membrane and probed.

A further test has as its target T2, SMARCA4 (Homo sapiens, UniProt P51532).
T2 construct: endogenous in cells
Put plainly: Cellular degradation assay, SMARCA4 (Table 1). Format: cell-based.

T2 sequence (P51532 whole entry, species assumed): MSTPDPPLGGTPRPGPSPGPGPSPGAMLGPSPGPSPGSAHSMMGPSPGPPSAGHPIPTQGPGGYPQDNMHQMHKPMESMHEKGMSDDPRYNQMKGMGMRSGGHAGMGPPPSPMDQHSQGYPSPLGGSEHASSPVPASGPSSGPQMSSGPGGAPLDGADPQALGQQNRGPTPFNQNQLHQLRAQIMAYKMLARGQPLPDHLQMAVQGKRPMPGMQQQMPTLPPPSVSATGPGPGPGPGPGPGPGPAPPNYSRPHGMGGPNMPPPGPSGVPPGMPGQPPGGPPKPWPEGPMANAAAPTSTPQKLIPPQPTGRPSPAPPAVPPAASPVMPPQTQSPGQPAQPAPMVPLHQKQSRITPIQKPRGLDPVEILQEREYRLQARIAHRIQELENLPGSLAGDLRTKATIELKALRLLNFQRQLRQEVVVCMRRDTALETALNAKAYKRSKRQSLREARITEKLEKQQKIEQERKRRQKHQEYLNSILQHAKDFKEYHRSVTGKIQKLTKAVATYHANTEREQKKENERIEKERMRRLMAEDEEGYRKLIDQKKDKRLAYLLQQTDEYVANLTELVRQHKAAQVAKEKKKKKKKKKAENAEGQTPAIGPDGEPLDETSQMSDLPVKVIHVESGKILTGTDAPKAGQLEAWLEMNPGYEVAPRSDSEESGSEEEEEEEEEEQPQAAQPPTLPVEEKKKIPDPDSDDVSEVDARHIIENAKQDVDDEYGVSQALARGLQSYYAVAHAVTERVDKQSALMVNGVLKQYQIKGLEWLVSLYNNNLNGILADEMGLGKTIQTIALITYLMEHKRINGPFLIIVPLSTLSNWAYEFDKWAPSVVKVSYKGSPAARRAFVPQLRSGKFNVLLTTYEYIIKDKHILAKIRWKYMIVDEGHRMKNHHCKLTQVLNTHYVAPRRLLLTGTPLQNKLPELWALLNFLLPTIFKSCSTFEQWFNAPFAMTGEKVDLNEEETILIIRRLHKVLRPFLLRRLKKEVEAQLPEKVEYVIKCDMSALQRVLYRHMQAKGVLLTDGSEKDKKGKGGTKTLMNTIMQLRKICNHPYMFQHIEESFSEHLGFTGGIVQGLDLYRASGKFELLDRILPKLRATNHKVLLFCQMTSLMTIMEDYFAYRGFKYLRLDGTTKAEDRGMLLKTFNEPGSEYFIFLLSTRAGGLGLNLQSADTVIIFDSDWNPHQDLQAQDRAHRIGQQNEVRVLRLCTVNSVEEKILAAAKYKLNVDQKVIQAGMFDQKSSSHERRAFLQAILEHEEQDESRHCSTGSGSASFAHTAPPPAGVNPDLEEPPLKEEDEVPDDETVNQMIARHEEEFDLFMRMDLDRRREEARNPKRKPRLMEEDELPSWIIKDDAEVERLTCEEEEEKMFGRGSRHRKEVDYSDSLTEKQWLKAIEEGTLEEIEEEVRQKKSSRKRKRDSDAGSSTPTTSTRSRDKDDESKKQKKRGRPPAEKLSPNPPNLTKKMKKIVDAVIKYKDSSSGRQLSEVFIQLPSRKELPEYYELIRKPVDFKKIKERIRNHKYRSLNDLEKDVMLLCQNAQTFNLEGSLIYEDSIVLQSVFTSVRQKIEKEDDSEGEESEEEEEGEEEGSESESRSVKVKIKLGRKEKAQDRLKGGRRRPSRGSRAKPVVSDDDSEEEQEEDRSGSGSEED
T1 sequence (P51531 whole entry, species assumed): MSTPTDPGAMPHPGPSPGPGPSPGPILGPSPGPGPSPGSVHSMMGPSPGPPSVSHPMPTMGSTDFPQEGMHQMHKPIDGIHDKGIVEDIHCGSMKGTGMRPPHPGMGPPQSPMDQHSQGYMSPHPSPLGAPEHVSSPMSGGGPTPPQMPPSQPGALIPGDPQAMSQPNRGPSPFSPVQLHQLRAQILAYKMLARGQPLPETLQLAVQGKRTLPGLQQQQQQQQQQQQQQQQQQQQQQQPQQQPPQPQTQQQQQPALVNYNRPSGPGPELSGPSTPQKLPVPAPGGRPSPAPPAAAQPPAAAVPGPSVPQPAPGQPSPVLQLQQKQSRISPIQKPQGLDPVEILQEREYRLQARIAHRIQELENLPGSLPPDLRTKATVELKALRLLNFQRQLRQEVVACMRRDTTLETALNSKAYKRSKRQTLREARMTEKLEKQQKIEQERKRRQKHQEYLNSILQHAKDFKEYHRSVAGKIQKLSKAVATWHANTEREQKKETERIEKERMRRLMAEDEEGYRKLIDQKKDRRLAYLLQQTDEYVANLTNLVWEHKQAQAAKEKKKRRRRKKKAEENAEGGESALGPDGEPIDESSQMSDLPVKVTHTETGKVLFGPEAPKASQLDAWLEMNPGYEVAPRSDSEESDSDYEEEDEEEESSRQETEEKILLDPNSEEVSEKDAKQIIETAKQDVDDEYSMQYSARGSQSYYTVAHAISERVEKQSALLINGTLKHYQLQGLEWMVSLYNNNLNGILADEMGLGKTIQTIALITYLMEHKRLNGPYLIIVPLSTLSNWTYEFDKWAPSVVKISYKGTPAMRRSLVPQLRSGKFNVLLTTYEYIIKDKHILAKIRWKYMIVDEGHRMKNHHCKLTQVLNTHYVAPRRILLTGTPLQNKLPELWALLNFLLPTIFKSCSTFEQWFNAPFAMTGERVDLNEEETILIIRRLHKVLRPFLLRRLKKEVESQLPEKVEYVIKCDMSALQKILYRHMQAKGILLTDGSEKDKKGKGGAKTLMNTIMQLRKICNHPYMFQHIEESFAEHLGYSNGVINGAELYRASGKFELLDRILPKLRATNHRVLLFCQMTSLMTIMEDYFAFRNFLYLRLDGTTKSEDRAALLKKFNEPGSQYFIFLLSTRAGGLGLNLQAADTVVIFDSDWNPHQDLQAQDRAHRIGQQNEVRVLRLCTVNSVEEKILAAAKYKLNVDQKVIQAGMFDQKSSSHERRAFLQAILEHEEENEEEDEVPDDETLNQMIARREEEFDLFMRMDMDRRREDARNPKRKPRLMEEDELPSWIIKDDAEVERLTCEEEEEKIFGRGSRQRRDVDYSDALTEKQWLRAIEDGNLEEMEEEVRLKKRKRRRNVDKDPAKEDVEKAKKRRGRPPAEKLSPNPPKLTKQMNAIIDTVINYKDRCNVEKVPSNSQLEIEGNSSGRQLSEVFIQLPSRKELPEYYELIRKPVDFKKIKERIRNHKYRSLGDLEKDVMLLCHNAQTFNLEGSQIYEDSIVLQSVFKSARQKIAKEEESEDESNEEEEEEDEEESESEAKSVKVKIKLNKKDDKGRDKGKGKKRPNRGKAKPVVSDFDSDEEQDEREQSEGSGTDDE

Turning to `O=C1CC[C@H](c2ccc(N3CCC(CCN4CCC(C(=O)NCC5(c6ccccc6)CCN(c6cnnc(-c7ccccc7O)c6)CC5)CC45CCOCC5)CC3)cc2)C(=O)N1` (mixture of isomers) [Example 104, rac-1-(2-(1-(4-((r)-2,6-dioxopiperidin-3-yl)phenyl)piperidin-4-yl)ethyl)-n-((1-(6-(2-hydroxyphenyl)pyridazin-4-yl)-4-phenylpiperidin-4-yl)methyl)-9-oxa-1-azaspiro[5.5]undecane-4-carboxamide], on SMARCA2, it took 7.3 nM to reach half-maximal degradation (DC50), the Dmax amounted to 81.8% and the “Fold Selectivity SMARCA4/2” value turned out to be 1370. For the same compound, at SMARCA4, the Dmax was determined as 50%.

As for `CC1(CN2CCC(c3ccc(C4CCC(=O)NC4=O)cc3)CC2)CCN(C(=O)C2(c3ccccc3)CCN(c3cnnc(-c4ccccc4O)c3)CC2)C1` (racemic) [Example 176, rac-(3R)-3-(4-{1-[(1-{1-[6-(2-hydroxyphenyl)pyridazin-4-yl]-4-phenylpiperidine-4-carbonyl}-3-methylpyrrolidin-3-yl)methyl]piperidin-4-yl}phenyl)piperidine-2,6-dione], at SMARCA2, it took 22.3 nM to reach half-maximal degradation (DC50), the maximal degradation (Dmax) worked out at 76.8% and the “Fold Selectivity SMARCA4/2” value was 449. On SMARCA4, this compound yielded a Dmax of 53%.

Consider `COC1(C(=O)N(C)C2CCN(CCC3CCN(c4ccc(C5CCC(=O)NC5=O)cc4)CC3)CC2)CCN(c2cnnc(-c3ccccc3O)c2)CC1` (racemic) [Example 195, rac-N-(1-(2-(1-(4-(2,6-dioxopiperidin-3-yl)phenyl)piperidin-4-yl)ethyl)piperidin-4-yl)-1-(6-(2-hydroxyphenyl)pyridazin-4-yl)-4-methoxy-n-methylpiperidine-4-carboxamide], for which, at SMARCA2, the 50% degradation concentration (DC50) came out at 13.7 nM, the Dmax came out at 70% and the “Fold Selectivity SMARCA4/2” value was determined as 727. On SMARCA4, this compound had a Dmax of 20.3%.

Regarding `O=C1CC[C@H](c2ccc(N3CCC(CN4CC(F)(F)C5(C4)CN(C(=O)C4(c6ccccc6)CCN(c6cnnc(-c7ccccc7O)c6)CC4)C5)CC3)cc2)C(=O)N1` [Example 52, (3R)-3-(4-{4-[(8,8-difluoro-2-{1-[6-(2-hydroxyphenyl)pyridazin-4-yl]-4-phenylpiperidine-4-carbonyl}-2,6-diazaspiro[3.4]octan-6-yl)methyl]piperidin-1-yl}phenyl)piperidine-2,6-dione], at SMARCA2, the Dmax stood at 44% and the “Fold Selectivity SMARCA4/2” value was determined as 1. Further, the Dmax on SMARCA4 stood at 13.7%.

Turning to `O=C1CC[C@H](c2ccc(N3CCC(CN4CCCC4C4CCN(C(=O)C5(c6ccccc6)CCN(c6cnnc(-c7ccccc7O)c6)CC5)CC4)CC3)cc2)C(=O)N1` (stereo partly drawn) [Example 40, (3R)-3-[4-(4-{[2-(1-{1-[6-(2-hydroxyphenyl)pyridazin-4-yl]-4-phenylpiperidine-4-carbonyl}piperidin-4-yl)pyrrolidin-1-yl]methyl}piperidin-1-yl)phenyl]piperidine-2,6-dione], at SMARCA2, half-maximal degradation (DC50) was put at 317 nM, the Dmax was determined as 50.3% and the “Fold Selectivity SMARCA4/2” value stood at 31.55. This compound also displayed a Dmax at SMARCA4 of 13.8%.

In the case of `O=C1CC[C@H](c2ccc(N3CCC(CN4CCC5(C4)CN(C(=O)C4(c6ccccc6)CCN(c6cnnc(-c7ccccc7O)c6)CC4)C5)CC3)cc2)C(=O)N1` [Example 17, (3R)-3-(4-{4-[(2-{1-[6-(2-hydroxyphenyl)pyridazin-4-yl]-4-phenylpiperidine-4-carbonyl}-2,6-diazaspiro[3.4]octan-6-yl)methyl]piperidin-1-yl}phenyl)piperidine-2,6-dione], at SMARCA2, it took 13.9 nM to reach half-maximal degradation (DC50), the maximal degradation (Dmax) turned out to be 78% and the “Fold Selectivity SMARCA4/2” value came to 314.31. At SMARCA4, this compound gave a DC50 of 4370 nM and a maximal degradation (Dmax) of 54.2%.

As to `O=C1CC[C@H](c2ccc(N3CC[C@]4(C3)C[C@@H](N3CC5(CCN(C(=O)C6(c7ccccc7)CCN(c7cnnc(-c8ccccc8O)c7)CC6)CC5)C3)C4)cc2)C(=O)N1` (racemic) [Example 129, (3RS&)-3-{4-[(2rs,4sr)-2-(7-{1-[6-(2-hydroxyphenyl)pyridazin-4-yl]-4-phenylpiperidine-4-carbonyl}-2,7-diazaspiro[3.5]nonan-2-yl)-6-azaspiro[3.4]octan-6-yl]phenyl}piperidine-2,6-dione], at SMARCA2, the DC50 came out at 20.3 nM, the maximal degradation (Dmax) stood at 78.2% and the “Fold Selectivity SMARCA4/2” value is reported as 6. Further, at SMARCA4, half-maximal degradation (DC50) was put at 125 nM and the maximal degradation (Dmax) is 61%.

With `O=C1CCC(c2ccc(N3CCC(CN4CCN(C(=O)C5(c6ccccc6)CCN(c6cnnc(-c7ccccc7O)c6)CC5)CC4)CC3)cc2)C(=O)N1` (racemic) [Example 6, rac-(3R)-3-(4-{4-[(4-{1-[6-(2-hydroxyphenyl)pyridazin-4-yl]-4-phenylpiperidine-4-carbonyl}piperazin-1-yl)methyl]piperidin-1-yl}phenyl)piperidine-2,6-dione], on SMARCA2, the DC50 was 121 nM, the Dmax was 63.6% and the “Fold Selectivity SMARCA4/2” value worked out at 82.86. Also, on SMARCA4, the Dmax was determined as 31.5%.

Turning to `CN(C(=O)C1(OC2CC2)CCN(c2cnnc(-c3ccccc3O)c2)CC1)C1CCN(CCC2CCN(c3ccc(C4CCC(=O)NC4=O)cc3)CC2)CC1` (racemic) [Example 124, rac-4-cyclopropoxy-N-{1-[2-(1-{4-[(3r)-2,6-dioxopiperidin-3-yl]phenyl}piperidin-4-yl)ethyl]piperidin-4-yl}-1-[6-(2-hydroxyphenyl)pyridazin-4-yl]-N-methylpiperidine-4-carboxamide], on SMARCA2, the DC50 came out at 11.3 nM, the maximal degradation (Dmax) came out at 75.9% and the “Fold Selectivity SMARCA4/2” value worked out at 882. This compound came in with a Dmax at SMARCA4 of 25.1%.

For the compound `O=C1CCC(c2ccc(N3CCC(CN4CC5(C4)CN(C(=O)C4(c6ccccc6)CCN(c6cnnc(-c7ccccc7O)c6)CC4)C5)CC3)c(F)c2F)C(=O)N1` (racemic) [Example 138, rac-(3R)-3-(2,3-difluoro-4-{4-[(6-{1-[6-(2-hydroxyphenyl)pyridazin-4-yl]-4-phenylpiperidine-4-carbonyl}-2,6-diazaspiro[3.3]heptan-2-yl)methyl]piperidin-1-yl}phenyl)piperidine-2,6-dione], on SMARCA2, the DC50 worked out at 4.09 nM, the Dmax was 89% and the “Fold Selectivity SMARCA4/2” value amounted to 9. For the same compound, on SMARCA4, half-maximal degradation (DC50) was put at 38.3 nM and the Dmax is 67.1%.

Regarding `COc1ccccc1C1(C(=O)N(C)C2CCN(CC3CCN(c4ccc([C@H]5CCC(=O)NC5=O)cc4)CC3)CC2)CCN(c2cnnc(-c3ccccc3O)c2)CC1` [Example 133, N-{1-[(1-{4-[(3R)-2,6-dioxopiperidin-3-yl]phenyl}piperidin-4-yl)methyl]piperidin-4-yl}-1-[6-(2-hydroxyphenyl)pyridazin-4-yl]-4-(2-methoxyphenyl)-n-methylpiperidine-4-carboxamide], on SMARCA2, the DC50 worked out at 2.5 nM, the Dmax is 90.5% and the “Fold Selectivity SMARCA4/2” value stood at 8. On SMARCA4, this compound came in with a half-maximal degradation concentration (DC50) of 20.5 nM and a Dmax of 74.8%.

Regarding `Cn1c(=O)n(C2CCC(=O)NC2=O)c2ccc(N3CCC(CN4CCC(NC(=O)C5(c6ccccc6)CCN(c6cnnc(-c7ccccc7O)c6)CC5)CC4)CC3)cc21` (racemic) [Example 158, rac-N-{1-[(1-{1-[(3R)-2,6-dioxopiperidin-3-yl]-3-methyl-2-oxo-2,3-dihydro-1H-1,3-benzodiazol-5-yl}piperidin-4-yl)methyl]piperidin-4-yl}-1-[6-(2-hydroxyphenyl)pyridazin-4-yl]-4-phenylpiperidine-4-carboxamide], on SMARCA2, the DC50 was found to be 0.44 nM, the Dmax is 92% and the “Fold Selectivity SMARCA4/2” value was 3. On SMARCA4, this compound registered a 50% degradation concentration (DC50) of 1.36 nM and a Dmax of 88.5%.

For `O=C1CC[C@H](NC(=O)c2ccc(N3CCC(CN4CCC(NC(=O)C5(c6ccccc6)CCN(c6cnnc(-c7ccccc7O)c6)CC5)CC4)CC3)nc2)C(=O)N1` [Example 156, N-[(3S)-2,6-dioxopiperidin-3-yl]-6-{4-[(4-{l-[6-(2-hydroxyphenyl)pyridazin-4-yl]-4-phenylpiperidine-4-amido}piperidin-1-yl)methyl]piperidin-1-yl}pyridine-3-carboxamide], on SMARCA2, half-maximal degradation (DC50) was put at 38.5 nM, the greatest degradation seen (Dmax) was determined as 63.2% and the “Fold Selectivity SMARCA4/2” value turned out to be 260. The compound further came in with a Dmax on SMARCA4 of 36%.

In the case of `O=C1CCC(c2ccc(OC3CCN(C(=O)C4CCN(C(=O)C5(c6ccccc6)CCN(c6cnnc(-c7ccccc7O)c6)CC5)CC4)CC3)cc2)C(=O)N1` (racemic) [Example 13, rac-(3R)-3-(4-{[1-(1-{1-[6-(2-hydroxyphenyl)pyridazin-4-yl]-4-phenylpiperidine-4-carbonyl}piperidine-4-carbonyl)piperidin-4-yl]oxy}phenyl)piperidine-2,6-dione], the maximal degradation (Dmax) worked out at 40.3% at SMARCA2 and 12.3% at SMARCA4. Besides, at SMARCA2, the “Fold Selectivity SMARCA4/2” value is reported as 1.

Regarding `O=C1CC[C@H](c2ccc(N3CCC(CN4CC5(C4)CN(C(=O)C4(C6CC6)CCN(c6cnnc(-c7ccccc7O)c6)CC4)C5)CC3)cc2)C(=O)N1` [Example 24, (3R)-3-(4-{4-[(6-{4-cyclopropyl-1-[6-(2-hydroxyphenyl)pyridazin-4-yl]piperidine-4-carbonyl}-2,6-diazaspiro[3.3]heptan-2-yl)methyl]piperidin-1-yl}phenyl)piperidine-2,6-dione], at SMARCA2, it took 62.7 nM to reach half-maximal degradation (DC50), the maximal degradation (Dmax) came out at 56.5% and the “Fold Selectivity SMARCA4/2” value worked out at 159.52. On SMARCA4, this compound came in with a maximal degradation (Dmax) of 31.7%.

As for `COc1ccccc1C1(C(=O)N(C)C2CCN(CCC3CCN(c4ccc([C@H]5CCC(=O)NC5=O)c(F)c4)CC3)CC2)CCN(c2cnnc(-c3ccccc3O)c2)CC1` [Example 85, N-{1-[2-(1-{4-[(3R)-2,6-dioxopiperidin-3-yl]-3-fluorophenyl}piperidin-4-yl)ethyl]piperidin-4-yl}-1-[6-(2-hydroxyphenyl)pyridazin-4-yl]-4-(2-methoxyphenyl)-N-methylpiperidine-4-carboxamide], at SMARCA2, the DC50 worked out at 8.19 nM, the Dmax turned out to be 90.9% and the “Fold Selectivity SMARCA4/2” value was determined as 1220. At SMARCA4, this compound yielded a Dmax of 41.9%.

The DC50 is the midpoint of the concentration-degradation curve. As a reminder, the Dmax is the greatest extent of degradation seen. Low readings indicate a partial loss of target, high ones a fuller loss of target.
